Legend:
[1] = tested on: newborn hippocampal neurons; test: In vivo neuroprotection assay: BrdU+ newborn hippocampal neurons; design: species or system mice; details: for # cell (E6)/mm^3 (number of BrdU+ cells): in vivo neuroprotection assay, Table 2
Method: Results. Our most robust assay involves monitoring neuroprotection of newborn hippocampal neurons in mice because this assay gives a simultaneous readout of efficacy, acute toxicity and cell permeability. For this reason, all analogs of P7C3 were evaluated initially by infusing them directly into the left lateral ventricle of environmentally-deprived^ix live mice using a subcutaneously implanted osmotic minipump. Compounds were delivered intracerebroventricularly (ICV) over a 7 day period at a concentration of 10 μM (12 μL/d).^x Coincident with ICV administration of drug, mice were dosed daily with the thymidine analog bromodeoxyuridine (BrdU, IP, 50 mg/kg) to mark newly born hippocampal neural precursor cells. At the end of the 1 week dosing, animals were sacrificed and transcardially perfused. Brain slices were stained with antibodies to BrdU, and the number of surviving neural precursor cells was quantified by counting the number of BrdU+ cells in the hippocampal dentate gyrus. To avoid complications arising from the surgical implantation of the pump, we quantified neurogenesis in the hemisphere opposite to compound infusion. Finally, to obtain consistent data across many animals, the number of BrdU+ cells was normalized to the volume of the dentate gyrus.
In Vivo Neuroprotection Assay. Test compounds were evaluated as described previously.^2 Compounds were infused intracerebroventricularly (i.c.v.) into the left lateral ventricle of four adult (12 week old) wild-type C57BL/J6 mice by means of surgically implanted Alzet osmotic minipumps that delivered solution into animals at a constant rate of 0.5 μl/hour for 7 days. Alternatively, compounds were administered intraperitoneally twice daily. Bromodeoxyuridine (BrdU) was injected intraperitoneally at 50 mg/kg/day for six days during pump infusion. Twenty-four hours after the final BrdU administration, mice were sacrificed by transcardial perfusion with 4% paraformaldehyde at pH 7.4, and their brains were processed for immunohistochemical detection of incorporated BrdU in the SGZ. Dissected brains were immersed in 4% paraformaldehyde overnight at 4° C., then cryoprotected in sucrose before being sectioned into 40 μm thick free-floating sections. Unmasking of BrdU antigen was achieved through incubating tissue sections for two hours in 50% formamide/2×SSC at 65° C., followed by a five minute wash in 2×SSC and subsequent incubation for thirty minutes in 2M HCl at 37° C. Sections were processed for immunohistochemical staining with mouse monoclonal anti-BrdU (1:100). The number of BrdU+ cells in the entire dentate gyrus SGZ in the contralateral hemisphere (opposite side of surgically implanted pump) was quantified by counting BrdU+ cells within the SGZ and dentate gyrus in every fifth section throughout the entire hippocampus and then normalizing for dentate gyrus volume.

[2] = tested on: newborn hippocampal neurons; details: previously reported; cited from earlier work
[3] = tested on: dopaminergic neurons within the substantia nigra; details: previously reported; cited from earlier work
[4] = tested on: motor neurons in the spinal cord; details: previously reported; cited from earlier work
70 kD polypeptide = test: Photo-crosslinking of 70 kD polypeptide and competition; format: binding; details: FIG. 13
Source text: Note that non-specific, crosslinked bands are not competed by the “A20” variant, but that crosslinking of the 70 kD band was competed.

Compound | # cell (E6)/mm^3 (number of BrdU+ cells) [1] | increase in the number of BrdU+ cells compared to vehicle ([1]; ICV, 1 week, FIG. 1) | also measured
C#CCOc1ccc(C(=O)c2ccc(NCC(O)Cn3c4ccc(Br)cc4c4cc(Br)ccc43)cc2)cc1 (stereo not shown) [P7C3-S325] | 30.6 (E6)/mm^3 |  | 
OC(CNc1ccccc1)Cn1c2ccc(Br)cc2c2cc(Br)ccc21 (stereo not shown) [P7C3, 1-(3,6-dibromo-9H-carbazol-9-yl)-3-(phenylamino)propan-2-ol] | 30 (E6)/mm^3 |  | activity in the in vivo hippocampal neuroprotection assay (previous studies) [2]: approximately doubled; protection of substantia nigra neurons from MPTP (earlier report) [3]: protect neurons in the substantia nigra; motor neuron cell death in the spinal cord [4]: minimize motor neuron cell death
COc1cccc(NCC(O)Cn2c3ccc(Br)cc3c3cc(Br)ccc32)n1 (stereo not shown) [compound 15, 1-(3,6-dibromo-9H-carbazol-9-yl)-3-((6-methoxypyridin-2-yl)amino)propan-2-ol] |  | 30% | 
[N-]=[N+]=NCC(F)Cn1c2ccc(Br)cc2c2cc(Br)ccc21 (stereo not shown) [compound 9, 9-(3-azido-2-fluoropropyl)-3,6-dibromo-9H-carbazole] |  |  | number of surviving newborn hippocampal neurons ([1]; ICV, 1 week, FIG. 1): inactive
NCC(F)Cn1c2ccc(Br)cc2c2cc(Br)ccc21 (stereo not shown) [compound 10, 3-(3,6-dibromo-9H-carbazol-9-yl)-2-fluoropropan-1-amine] |  | 30% | 
OC(CNc1ccccn1)Cn1c2ccc(Br)cc2c2cc(Br)ccc21 (stereo not shown) [compound 1, 1-(3,6-dibromo-9H-carbazol-9-yl)-3-(pyridin-2-ylamino)propan-2-ol] |  |  | activity in the in vivo hippocampal neuroprotection assay (previous studies) [2]: maintaining activity
O=C(CCCC[C@@H]1SC[C@@H]2NC(=O)N[C@@H]21)NCCOCCOCCOCCn1cc(COc2ccc(OCC(O)Cn3c4ccc(Br)cc4c4cc(Br)ccc43)cc2)nn1 (stereo partly shown) [P7C3-S318] | 20.8 (E6)/mm^3 |  | 
NCC(O)Cn1c2ccc(Br)cc2c2cc(Br)ccc21 (stereo not shown) [compound 14, 1-amino-3-(3,6-dibromo-9H-carbazol-9-yl)propan-2-ol] |  | 30% | 
C#CCOc1ccc(C(=O)c2cccc(NCC(F)Cn3c4ccc(Br)cc4c4cc(Br)ccc43)c2)cc1 (stereo not shown) [P7C3-S326] | 25 (E6)/mm^3 |  | photo-crosslinking products (70 kD polypeptide): photo-crosslinking of 70 kD polypeptide
